The record followed here is US9724537B2, “Abnormal electrical conduction blocking apparatus using photodynamic therapy (PDT)” (Keio University, priority 2006, dated 2017).

Test [1] concerns isolated right ventricular free wall of a Wistar rat. Kind of test: PDT electrical conduction block experiment in ex vivo system. The method, then: As materials, spread samples of an isolated right ventricular free wall of a Wistar rat (male, 8 to 10 weeks old) were used. The length (L) and the thickness (d) of sample photoradiation lines in each experiment are as follows.
Experiment 1: L=0.9 cm, d=1.5 mm
Experiment 2: L=0.76 cm, d=1.5 mm
Experiment 3: L=1.2 cm, d=1.4 mm
Experiment 4: L=0.88 cm, d=1.4 mm
Tyrode's solution (95% O2 and 5% CO2 gases were passed through, and the temperature was maintained at 37° C. in a constant-temperature apparatus) was used as a perfusion fluid.
Immediately after isolation, the heart was dipped in the perfusion fluid heated at about 37° C., and a right ventricular tissue was ablated. The ablated tissue was fixed on the silicon floor of a tissue bath with a 0.2 mmφ tungsten wire, and then the perfusion fluid was allowed to flow.
Immediately after rats were allowed to inhale vaporized diethyl ether, heparin and Nembutal (0.2 and 0.5 ml, respectively) were administered intraperitoneally, and approx. 0.5 ml of talaporfin sodium (Laserphyrin [registered trade name] Meiji Seika Kaisha, Ltd.) dissolved in physiological saline was intravenously injected from the vena cava of the rat lower extremity. After the heart was isolated, a right ventricular tissue was ablated in a normal Tyrode's solution and fixed in a tissue bath. Then, Tyrode's solutions in which talaporfin sodium was dissolved at various concentrations (see Reference Example 1 described later, set assuming a half of the plasma concentration at each dose and interval as blood concentration) (these are referred to as photosensitizer solutions), and loaded by circulatory perfusion for a period equal to time required from the heart isolation to bath fixation (approx. 10 min), and laser irradiation was performed with surface perfusion. The photosensitizer dose (D), the interval to heart isolation, and the concentration of the photosensitizer solution (c) in each experimental example were as follows.
Experiment 1: D=5 mg/kg; interval, 30 min; c=30 μg/ml
Experiment 2: D=5 mg/kg; interval, 60 min; c=20 μg/ml
Experiment 3: D=2 mg/kg; interval, 30 min; c=12 μg/ml
Experiment 4: D=2 mg/kg; interval, 60 min; c=8 μg/ml
A continuous semiconductor laser beam (SONY, peak wavelength, 670 band) was transmitted with a quartz fiber (core diameter, 800 μm), and the fiber was used virtually in contact with the tissue surface with an output at the end thereof being 5 mW. Laser irradiation was performed while reciprocating the fiber horizontally across the tissue over approx. 1 cm on the tissue surface. The laser irradiation time (T) and the total dose of laser irradiation (It) in each experimental example were as follows.
Experiment 1: T=60 s, It=4.2 J/cm^2
Experiment 2: T=80 s, It=6.6 J/cm^2
Experiment 3: T=267 s, It=14 J/cm^2
Experiment 4: T=500 s, It=36 J/cm^2
0.8-mA electrical stimulus was applied from a bipolar electrode (Unique Medical Co., Ltd., obtained by twining 0.2-mmφ silver chloride wires) with a stimulator and an isolator (Nihon Kohden Corporation) every 300 ms, and two bipolar electrodes for measuring a potential (Unique Medical Co., Ltd., 0.25 mmφ stainless) were placed on the tissue surface to measure a extracellular potential (FIG. 24). […] A signal was led to a bioamplifier (Physio-Tech Co., Ltd., DAM50) and recorded and analyzed using a biosignal recording/analyzing apparatus (AD Instrumens) (FIG. 25). FIG. 25 is a schematic view showing an ex vivo experimental system.
FIGS. 26 to 29 show extracellular potentials before and after PDT a led potential in each experiment. In FIGS. 26 to 29, the upper line (red line) and the lower line (blue line) in one graph represent potentials in X and Y in FIG. 24, respectively. The vertical axis represents voltage.

For test [2], the system named is cultured cardiac muscle cells derived from an SD rat. As to the kind of experiment: PDT cell lethality vs photosensitizer concentration, loading time and total dose (CCK-8). The format is cell-based. As to conditions: for cell lethality at 2 h after irradiation: loading 0 to 120 min, 5, 10, 15 J/cm^2. As for the experimental part:
Using cultured cardiac muscle cells derived from an SD rat, the relationship of the photosensitizer concentration, the photosensitizer loading time, and the cell lethality and the laser output required to induce cell death were examined
Cultured cardiac muscle cells derived from an SD rat were purchased from Cell Garage Co., Ltd. D-MEM/F12+10% FBS was used as a medium.
2.2 to 2.3×10^5 cells/ml of cardiac muscle cells in suspension were seeded on a collagen-coated 96-well plate at 0.1 ml/well (2.2 to 2.3×10^4 cells/well) and cultured in an incubator (37° C., CO2 concentration 5%) for six to seven days.
At this time, talaporfin sodium as a photosensitizer was dissolved in a medium at 5, 15, or 30 μg/ml. Cardiac muscle cells were loaded with talaporfin sodium for 0, 30, 60, or 120 min and irradiated with a laser beam. Laser irradiation was performed using a continuous semiconductor laser beam (peak wavelength, 670.8 nm; power density, 150 mW/cm^2) on a 0.5-cm^2 irradiation field (=area of a well) at 5, 10, and 15 J/cm^2.
After laser irradiation, 0.01 ml of Cell Counting Kit-8 (Dojindo Laboratories, hereinafter referred to as CCK-8) was added to the medium in each well, the plate was incubated for 2 h, and the absorbance at 450 nm was measured to calculate the cell lethality. The cell lethality was calculated based on the absorbance without performing laser irradiation as 100%.

The mark [3] stands for this setting: Experiment 1: 5 mg/kg i.v., interval 30 min, 30 μg/ml, 4.2 J/cm^2.
Setting [4] is: Experiment 2: 5 mg/kg i.v., interval 60 min, 20 μg/ml, 6.6 J/cm^2.
Setting [5] is: Experiment 3: 2 mg/kg i.v., interval 30 min, 12 μg/ml, 14 J/cm^2.
Where [6] appears, read: Experiment 4: 2 mg/kg i.v., interval 60 min, 8 μg/ml, 36 J/cm^2.

Take `C=Cc1c(C)c2cc3nc(c(CC(=O)N[C@@H](CC(=O)O)C(=O)O)c4[nH]c(cc5nc(cc1[nH]2)C(C)=C5CC)c(C)c4C(=O)O)[C@@H](CCC(=O)O)[C@@H]3C` [talaporfin sodium, mono-L-aspartyl chlorine 6]: the “electrical conduction block after PDT” value in test [1] (setting [3]), in test [1] (setting [4]), in test [1] (setting [5]) and in test [1] (setting [6]) was “an electrical conduction block occurred after PDT” throughout. For the same compound, the “time the conduction block state was maintained” value came out at 3 h in test [1] (setting [3]), 2 h in test [1] (setting [4]), 3 h in test [1] (setting [5]) and 3 h in test [1] (setting [6]). Also, the figures for the “cell lethality at 2 h after irradiation” value in test [2] (15 μg/ml or lower) and in test [2] (30 μg/ml) were “no marked effect was observed” and “the cell lethality markedly increased after laser beam irradiation”, respectively. In addition, in test [2] (30 μg/ml, 15 J/cm^2, loading 30 min), the “cell morphology immediately after laser beam irradiation” value is “marked changes in cell morphology, such as exfoliation and shrinkage of cells, were observed”. Further, the “cell lethality vs loading time” value in test [2] (loading 0, 30, 60, 120 min, FIG. 19) is listed as “loading for 30 min was most effective”.
